What was measured:
Experiment in all cases: radioligand binding assay (NIMH PDSP), secondary screen
[1] = target: T1, kappa opioid receptor (KOR) (Homo sapiens, UniProt P41145)
T1 construct: gene OPRK1

[2] = target: T2, dopamine D3 receptor (D3R) (Homo sapiens, UniProt P35462)
T2 construct: gene DRD3

[3] = target: T3, dopamine transporter (DAT) (Homo sapiens, UniProt Q01959)
T3 construct: gene SLC6A3
T3 sequence (Q01959 whole entry): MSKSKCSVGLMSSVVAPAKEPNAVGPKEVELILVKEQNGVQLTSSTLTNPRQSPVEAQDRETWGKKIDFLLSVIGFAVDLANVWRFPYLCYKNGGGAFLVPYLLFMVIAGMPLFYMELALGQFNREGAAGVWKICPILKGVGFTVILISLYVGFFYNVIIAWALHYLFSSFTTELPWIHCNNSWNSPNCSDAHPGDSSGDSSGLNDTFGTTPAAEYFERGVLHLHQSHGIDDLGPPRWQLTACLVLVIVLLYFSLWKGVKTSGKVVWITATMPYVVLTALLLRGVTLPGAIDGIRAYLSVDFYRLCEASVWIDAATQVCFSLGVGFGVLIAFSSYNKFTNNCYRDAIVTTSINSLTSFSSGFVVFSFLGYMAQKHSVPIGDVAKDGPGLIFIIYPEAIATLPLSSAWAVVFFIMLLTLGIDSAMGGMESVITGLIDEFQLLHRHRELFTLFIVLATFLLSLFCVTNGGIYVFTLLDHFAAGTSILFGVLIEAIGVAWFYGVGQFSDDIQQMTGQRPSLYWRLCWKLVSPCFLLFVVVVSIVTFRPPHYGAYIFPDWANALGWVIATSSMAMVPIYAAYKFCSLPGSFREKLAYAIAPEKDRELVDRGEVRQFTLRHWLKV

T2 sequence (P35462 whole entry): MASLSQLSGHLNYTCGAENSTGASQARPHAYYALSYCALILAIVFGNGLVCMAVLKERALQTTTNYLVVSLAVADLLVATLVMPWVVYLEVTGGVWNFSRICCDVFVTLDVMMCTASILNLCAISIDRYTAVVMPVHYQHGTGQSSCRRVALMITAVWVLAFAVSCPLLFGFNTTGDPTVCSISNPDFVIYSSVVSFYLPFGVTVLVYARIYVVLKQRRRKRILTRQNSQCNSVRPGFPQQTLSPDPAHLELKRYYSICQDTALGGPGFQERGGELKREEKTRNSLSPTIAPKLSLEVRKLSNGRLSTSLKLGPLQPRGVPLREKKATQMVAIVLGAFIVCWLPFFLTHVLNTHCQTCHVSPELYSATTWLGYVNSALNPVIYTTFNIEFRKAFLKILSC
T1 sequence (P41145 whole entry): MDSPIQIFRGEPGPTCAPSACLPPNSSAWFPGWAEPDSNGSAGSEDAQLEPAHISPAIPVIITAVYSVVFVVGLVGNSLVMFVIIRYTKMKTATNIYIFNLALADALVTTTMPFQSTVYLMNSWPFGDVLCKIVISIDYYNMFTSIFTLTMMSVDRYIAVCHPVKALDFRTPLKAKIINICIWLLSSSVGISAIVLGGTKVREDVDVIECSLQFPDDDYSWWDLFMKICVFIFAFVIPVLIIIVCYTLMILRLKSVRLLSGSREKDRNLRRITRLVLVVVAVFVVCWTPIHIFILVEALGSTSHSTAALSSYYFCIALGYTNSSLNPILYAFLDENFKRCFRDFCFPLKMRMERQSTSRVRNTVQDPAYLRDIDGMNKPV

What does the source list for CO/C(=C/C(=O)N(C)C(Cc1ccccc1)c1nccs1)CC(C)C(Cl)(Cl)Cl (stereo not drawn) [compound 1, barbamide]?
Ki [1]: 0.0791 µM; Ki [2]: 0.446 µM; Ki [3]: 3.1 µM

From paper PMC9966578, “Barbamide Displays Affinity for Membrane-Bound Receptors and Impacts Store-Operated Calcium Entry in Mouse Sensory Neurons” (Marine Drugs, 2023)
